According to US20260224489A1, “TRICINE AND CITRIC ACID-BASED CATIONIC LIPIDS WITH AROMATIC HEAD GROUPS” (SANOFI, priority 2023, published 2026):

How the values were obtained:
[1] = tested on: luciferase production in the lung; assay: Delivery of Firefly Luciferase (FFL) mRNA by intratracheal administration via catheter, IVIS imaging; format: in vivo, male CD1 mice; settings: for FFLuc (Avr. Rad.): single intratracheal administration, lung; for in vivo FFL protein production (FIG. 8), in words: intratracheal delivery via catheter of FFL mRNA lipid nanoparticles to mice
Method: Lipid nanoparticle formulations 1, 2 and 4 were administered via intratracheal pulmonary delivery. Compound B was the only cationic lipid evaluated via intratracheal pulmonary delivery with lipid nanoparticle formulation 2. Compound A was the only cationic lipid evaluated via intratracheal pulmonary delivery with lipid nanoparticle formulation 4. All other cationic lipids were evaluated via intratracheal pulmonary delivery with lipid nanoparticle formulation 1.
Lipid nanoparticle formulations 1, 2 and 4 listed in Table 1 comprising FFL mRNA, cationic lipid, DMG-PEG2000, cholesterol and DOPE were administered to male CD1 mice (6-8 weeks old) by a single intratracheal administration via Catheter® (50 μl/animal) while under anesthesia. At approximately 24 hours post-dose, the animals were dosed with luciferin at 150 mg/kg (60 mg/mi) by intraperitoneal injection at 2.5 ml/kg. After 5-15 minutes, all animals were imaged using an IVIS imaging system to measure luciferase production in the lung.

[2] = Lipid degradability by mouse lung S9 in vitro; format: in vitro ADME; settings: 2 μM lipid, 2.4 mg/ml lung S9, pH 7.4, 37° C., time points up to 48 hr
Method: (§1) Assay format—4 or 5 time points in triplicate.
(§2) • 1) Plan experiment, compounds, and reagents. • 2) Dissolve each lipid in DMSO or IPA to make 5 mM stock, then dilute by IPA to 200 μM work solution. • 3) Thaw mouse and human lung S9. • 4) Prepare pooled incubation mixture as in the reaction formulas below on ice. • 5) Aliquot 495 μL incubation mixture prepared in step #4 to each well of a 2 mL 96-well plate. • 6) Add 5 μL compound to each well to initiate the reaction. Take t0 samples (as in step #8). • 7) Cover the plate with 2 layers of breathable seals and incubate the plate on an orbital shaker at 150 rpm in a 37° C. CO2 incubator. • 8) At each time point, pipette to mix the incubation mixture 5 times, then take 70 μL of incubation mixture to a fresh plate. Store in −20° C. freezer immediately. • 9) Add 210 μL (3× volume) of the cold stop solution to each well of the sample plates collected. Mix at 600 rpm on an orbital shaker for 15 min. • 10) Centrifuge the quenched plates at 3800 rpm for 10 min at 4° C. and transfer supernatant to fresh plates. • 11) Load the supernatant on filter plates and centrifuge again at 3800 rpm for 5 min at 4° C. Collect final samples in fresh plates for LC/MS. • 11. Time course and stop solutions: 4-5 Time points (hour): e.g. 0, 4, 8, 24, 48 hr stop solution: 1:1:1 ACN/MeOH/IPA (v/v/v) with propranolol & MC3 as internal standard. Store at 4° C.

[3] = Lipid degradability by human lung S9 in vitro; format: in vitro ADME; settings: 2 μM lipid, 2.4 mg/ml lung S9, pH 7.4, 37° C., time points up to 48 hr
Method: as §1, §2

[4] = dose 10 μg/Animal, lipid nanoparticle formulation 1, approximately 24 hours post-dose
[5] = dose 5 μg/Animal, lipid nanoparticle formulation 1, approximately 24 hours post-dose

Row | SMILES | In vitro degradation Mouse lung S9 [2] | In vitro degradation Human lung S9 [3] | FFLuc (Avr. Rad.) [1, 4] | FFLuc (Avr. Rad.) [1, 5] | in vivo FFL protein production (FIG. 8), in words [1] | also measured
1 | CCCCCCCCCCCCC(O)CN(CCCC(=O)Oc1c(OC)cc(C(=O)OCCCN(C)C)cc1OC)CC(O)CCCCCCCCCCCC (stereo not shown) [Compound A, reference compound] |  |  |  |  |  | FFLuc (Avr. Rad.) ([1]; dose 10 μg/Animal, lipid nanoparticle formulation 4, approximately 24 hours post-dose): 221,320 p/s/cm^2/sr
2 | CCCCCCCCOC(=O)CC(CC(=O)OCCCCCCCC)(OC(=O)CCN(C)C)C(=O)OCCCCCCCC [Compound B, reference compound] |  |  |  |  |  | FFLuc (Avr. Rad.) ([1]; dose 10 μg/Animal, lipid nanoparticle formulation 2, approximately 24 hours post-dose): 139,058 p/s/cm^2/sr
3 | CCCCCCCCOC(=O)CC(CC(=O)OCCCCCCCC)(OC(=O)CCC(=O)Oc1c(OC)cc(/C=C/C(=O)OCCCN(C)C)cc1OC)C(=O)OCCCCCCCC [Compound XXVI] | 36 h | long (over 48 h |  | 140,620 p/s/cm^2/sr | high levels of in vivo FFL protein production | 
4 | CCCCCCCCOC(=O)CC(CC(=O)OCCCCCCCC)(OC(=O)/C=C/C(=O)Oc1c(OC)cc(C(=O)OCCCN(C)C)cc1OC)C(=O)OCCCCCCCC [Compound X] |  |  | 173,197 p/s/cm^2/sr |  |  | 
5 | CC(C)CCCC(C)[C@H]1CCC2C3CC=C4C[C@@H](OC(=O)CCc5c[nH]cn5)CC[C@]4(C)C3CC[C@@]21C (stereo partly shown) [ICE, imidazole cholesterol ester, reference compound] |  |  | 7,508 p/s/cm^2/sr |  |  | 

Further lines, with some results ahead:

Row | In vitro degradation Mouse lung S9 [2] | In vitro degradation Human lung S9 [3] | SMILES | FFLuc (Avr. Rad.) [1, 4] | FFLuc (Avr. Rad.) [1, 5] | in vivo FFL protein production (FIG. 8), in words [1] | also measured
6 | 6.8 h | 17.1 h | CCCCC/C=C/COC(=O)CC(CC(=O)OC/C=C/CCCCC)(OC(=O)CCC(=O)Oc1c(OC)cc(C(=O)OCCCN(C)C)cc1OC)C(=O)OC/C=C/CCCCC [Compound III] | 353,012 p/s/cm^2/sr |  |  | 
7 | 16.6 h | 20.2 h | CCCCCCCCOC(=O)CC(CC(=O)OCCCCCCCC)(OC(=O)CCC(=O)Oc1c(OC)cc(C(=O)OCCCN(C)C)cc1OC)C(=O)OCCCCCCCC [Compound II] |  | 592,250 p/s/cm^2/sr | high levels of in vivo FFL protein production | 
8 | 16.2 h | 20.2 h | CCCCCCCCOC(=O)CC(CC(=O)OCCCCCCCC)(OC(=O)CCC(=O)Oc1c(OC)cc(C(=O)OCCN(C)C)cc1OC)C(=O)OCCCCCCCC [Compound I] |  | 158,516 p/s/cm^2/sr | high levels of in vivo FFL protein production | 
9 | 1.3 h | 14.8 h | CCCCCC#CCOC(=O)CC(CC(=O)OCC#CCCCCC)(OC(=O)CCC(=O)Oc1c(OC)cc(C(=O)OCCCN(C)C)cc1OC)C(=O)OCC#CCCCCC [Compound V] | 567,300 p/s/cm^2/sr |  |  | 
